Measured values from patent US6903130B1, “Pyrrolidineacetamide derivative alone or in combination for treatment of cns disorders” (UCB S.A., priority 1999, dated 2005).
Read-outs that look alike come from different tables or passages of the source.

Columns and labels:
[1] = test system: amygdala-kindled rats; assay: Rotarod test in amygdala-kindled rats
Procedure: Levetiracetam and valproate, in a dose-volume of 5 ml/kg body weight, were administered intraperitoneally 60 and 30 minutes, respectively, before the induction of kindling or the measurement of rotarod performance. Levetiracetam ([…]) and sodium valproate (50, 100, 150, 200 and 300 mg/kg) were both dissolved in 0.9% NaCl to give solutions of pH 5.9 and 6.3, respectively. Control rats received an equivalent dose-volume of the appropriate vehicle.
The amygdala-kindled rats (n=8) were also tested on a rotating rod. The animals were pretreated with i.p. administrations of levetiracetam and valproate 60 and 30 minutes, respectively, before testing, Only animals that were unable to remain on the rod after three subsequent 1-minute attempts were considered as having an impaired performance. Results were analyzed as described in example 1.

[2] = test system: amygdala-kindled rats; assay: Protection against secondarily generalized motor seizures in amygdala-kindled rats; type: in vivo, rat; settings: for ED50: Rattus norvegicus, ip, read-out: ED50, protection against secondarily generalized motor seizures
Description: The purpose of this study was to evaluate the pharmacodynamic interaction between valproate levetiracetam in preventing secondarily generalized motor seizures in amygdala-kindled rats, a model that has repeatedly been proposed to reflect complex partial seizures with secondarily generalization in man ([…]. & al., Exp. Neurol. […] McNamara J. O., Ann. of Neurol. (1984), 16 (suppl.), […]-[…]). In this model, focal electrical kindling of amygdala in rats induces the development of electrical seizure activity ([…] amygdala and behavioral seizures, generally evolving through facial clonus, head nodding, forelimb clonus, rearing and fully kindled seizures with rearing and falling accompanied by generalized clonic seizures (Racine R. J., Electroencephalogr. Clin. Neurophysiol. (1972), 32, 281-294). […] Neurol. […] Two days later, drugs were tested. The behavioral effect of stimulation was graded according to the score of Racine (Racine R. J., Electroencephalogr. Clin. Neurophysiol. (1972), 32, 281-294).

[3] = test system: rats with hyperactivity induced by a mixture of dexamphetamine-chlordiazepoxide; assay: Y-maze test, DEX-CDP hyperactivity, levetiracetam and valproate alone or combined (Example 6); type: in vivo, rat; settings: median (Q1-Q3)
Description: The purpose of the present experiment was to study the effects of levetiracetam administered alone or in combination with valproate on the hyperactivity induced in rats by a mixture of dexamphetamine-chlordiazepoxide (DEX-CDP) evaluated in a Y-shaped maze apparatus, a test recognized as a model for mania. Increased motor activity is a frequent symptom of manic disorders and, therefore, is often used as a model of mania in laboratory animals. Lithium, a medicine approved by the FDA in the prophylaxis and the treatment of bipolar disorders and mania, and valproate, indicated for the treatment of manic episodes associated with bipolar disorders, have been shown active in this model of mania (Vale A. L. & Ratcliffe F., Psychopharmacol. (1987), 91, 352-355; Cao B. J. & Peng N. A., Eur. J. Pharmacol. (1993), 237, 177-181).
Hyperactivity was induced in male Sprague Dawley rats weighing 210-290 g (n 13 or 15 per group) by a mixture of dexamphetamine-chlordiazepoxide as described by Vale A. L. (Vale A. L. & Ratcliffe F., Psychopharmacol. (1987), 91, 352-355). […]
Each rat was placed in the center of the Y-maze (with each arm 40 cm long and 15 cm wide with 35 cm walls) constructed in gray plexiglas. The number of visits into the arms was recorded over a 5 minutes period as an index of activity.
The results were expressed as median with the first and third quartile. […]

SMILES | impairment of rotarod performance (in words) ([1]; levetiracetam alone 108, 170 and 540 mg/kg i.p.) | ED50 [2] | Calculated proportion of animals protected ([2]; levetiracetam 17 mg/kg alone) | Calculated proportion of animals protected ([2]; levetiracetam 54 mg/kg alone) | Calculated proportion of animals protected ([2]; levetiracetam 108 mg/kg alone) | Number of arms visited ([3]; levetiracetam 17 mg/kg i.p. + DEX-CDP mixture) | Impairment in the performance within the rotarod test ([1]; valproate 197 mg/kg + saline (treatment protecting 50% of the rats)) | ED50 ([2]; compound alone, i.p., LOGIT-LOG DOSE regression) | Number of arms visited ([3]; valproate 150 mg/kg i.p. + DEX-CDP mixture)
CC[C@@H](C(N)=O)N1CCCC1=O [Levetiracetam, (S)-(−)α-ethyl-2-oxo-1-pyrrolidineacetamide] | None of the three doses of levetiracetam tested (108, 170 and 540 mg/kg) impaired the performance | 307 mg/kg | 7% | 18% | 28.5% | 46 (41-49) |  |  | 
CCCC(CCC)C(=O)[O-].[Na+] [Valproate, sodium valproate] |  |  |  |  |  |  | 46% | 197 mg/kg | 41 (18-49)
